The values below come from patent publication US20170217982A1, “Compound isolated from Pseudolysimachion rotundum var. subintegrum, the composition comprising the same for treating allergic disease, inflammatory disease, asthma or chronic obstructive pulmonary disease and the use thereof” (YUNGJIN PHARMACEUTICAL CO., LTD, priority 2014, published 2017).

Each structure is given as a SMILES string. “And” between values parts separate entries of the source, which are not always exact repeats. Identical values can stand only once.

In test [1] the test system is MUC5AC. Briefly: Inhibition of TNF-alpha induced MUC5AC mRNA expression in H292 cells (qRT-PCR). Format: cell-based, human. The settings on record: TNF-α 20 ng/ml. On the procedure: In order to determine the inhibitory effect on the expression of MUC5AC induced by TNF-alpha in H292 cell line, following test was performed:
The isolation of total RNA, cDNA synthesis and quantitative real-time PCR were performed by the method disclosed in the literature (Kim et al., J. Cell. Biochem. 2008, 104, 1906-1917).
In summary, total RNA was isolated using by TRIzol reagent (155596-026, Life Technologies) and the first strand cDNA was synthesized using by enzyme (Omniscript Reverse Transcriptase, 205113, Qiagen, Calif.). The quantitative real-time PCR amplification was performed using by apparatus 1 (S1000 Thermal cycler, Bio-rad, USA) and apparatus 2 (2× Greenstar master mix, Bioneer, Korea) according to the manufacture's manual.
Specifically, the reproduced amount of TNF-alpha induced MUC5AC was determined by Real-time polymerase chain reaction (real-time PCR), quantitative real time polymerase chain reaction (qPCR) and MUC5AC immunoassay. H292 cells were inoculated into 48 well plates in a concentration of 2×10^4 cells/well to adhere for 24 hours and the culture medium was replaced with new 0.1% FBS containing medium to culture for 24 hours. […]
In order to extract total RNA, RNA was extracted using by Trizol B (Invitrogen) and cDNA was synthesized using by Omniscript RT kit (Qiagen, GmbH, Hilden, Germany) after the quantification.
In general terms: Real-time PCR tracks product formation cycle by cycle.

The test system of test [2] is COPD induced mice. Briefly: Anti-COPD effect in cigarette smoke + LPS COPD mouse model. Format: in vivo, C57BL/6N mouse. The conditions noted are these: for activity of neutrophils elastase enzyme in BALF comparing with COPD induced group / reduced level of ROS in BALF comparing with COPD induced group / reduced level of neutrophils in BALF comparing with COPD induced group / reduced level of proteins in BALF comparing with COPD induced group / reduced level of IL-6 in BALF comparing with COPD induced group / reduced level of TNF-alpha in BALF comparing with COPD induced group: COPD mice; for reduced level of IL-6 in BALF comparing with COPD induced group / reduced level of TNF-alpha in BALF comparing with COPD induced group: ELISA. The procedure:
In order to determine the anti-COPD effect of inventive compounds in COPD animal model, following test was performed by using COPD induced mice as disclosed in the literature (Bhaysar, T. et al., J. Chronic Obstr. […]. Dis., 2008, 3, 477-481). Specific pathogen-free male C57BL/6N mouse (about 22-24 g), aged 6 weeks, which were routinely screened serologically for relevant respiratory pathogens, were purchased from Koatech Co. (koatech.co.kr, Seoul, Korea) and bred allowing to access freely to feed (antibiotic free, Samyang Oil & Feed Corp., Korea) and water in breeding room controlling the temperature of 22±2° C., and humidity of 55±15% at the light-dark cycle for 12 hours and acclimated with the experimental environment for 1 week. 2 kinds of test samples, […] ingredient: Roflumilast, 10 mg/kg) were dissolved in 0.5% sodium carboxymethyl cellulose ([…], Sigma-Aldrich, USA) and used as test samples. KS534, and Rolflumilast (ROF 11-492, HETERO, India) were orally administrated to the mice, 1 hour before prior the intratracheal instillation (i.t.). 3R4F Kentuchy Reference Cigarettes ([…], USA) was used as a standard cigarette for generating a cigarette smoke. The cigarette containing 9.4 mg of tar, 11 mg of TPM (total particle matter) and 12 mg of carbon monooxide per piece, was used after harmonizing with the temperature of 22±1° C. and humidity of 60±2% after opening for 48-72 hrs. The exposure of cigarette smoke was performed by using a cigarette smoke generator (DBL Co. Ltd., dhbiolink.com, Korea). The mice were divided into five groups: normal (NC), COPD (cigarette smoke with LPS intranasal instillation), Rof (10 mg/kg of roflumilast, p.o.+cigarette smoke with LPS intranasal instillation), and KS534-15 and 30 (15 mg/kg and 30 mg/kg of KS534, p.o.+cigarette smoke with LPS instillation, respectively). Exposure of cigarette smoke (one puff/min, 35 ml puff volume over 2 s, every 60 s, 8 cigarettes per day) was conducted using a cigarette smoke generator. The mice received 1 h of cigarette smoke exposure in an exposure chamber (50 cm×30 cm×30 cm) for 3 days. Roflumilast and piscroside C were administered to mice by oral lavage 1 h before cigarette smoke exposure for 3 days. LPS was intranasally instilled ([…] dissolved in 50 μL distilled water) under anesthesia 1 h after the final exposure to cigarette smoke. After the end of experiment, the blood, BALF, and pneumonocyte of each rat were isolated and collected to test. After finishing the experiment, rats were anaesthetized with Zoleti150 (3VX9, Virbac, France, p.o) and the blood was delivered through caudal veins. In order to isolate BALF from lung, the bronchus of right lung was ligated with suture and then performed to tracheostomy. IV-use catheter (16 GA, 3S-Cath, Dukwoo, Korea) was put into the bronchus, and both of bronchus and catheter (16 GA, 3S-Cath, Dukwoo, Korea) were fixed with suture. The injector containing 1 ml of DPBS 0.7 (Dubecco's phosphate-buffered saline, Invitrogen, USA) was connected thereto and DPBS was forced to circulate three times to isolate BALF. The right lung ligated with suture was isolated, fixed with 10% neutral formalin solution, and the remaining lung tissue was reserved in refrigerator at -70° C. The isolated BALF was centrifuged for 15 mins at 1500 rpm to prepare cell pellet and the supernatant was reserved in refrigerator at -70° C. for cytokine analysis. The cell pellet was suspended in DPBS, and the cell was attached to a slide glass using by cytospin centrifuge (CS03270047, Hanil, Korea). Diff-Quik staining (ZS1003, Sysmex, Japan) was performed and the cell was observed by optical microscopy (DM1000, Leica, German) to count the number of immunocyte in each test sample. The level of ROS in BALF isolated from the mice was determined by DCF-DA (dihydrodo chloro fluoresce indiacetate, 35854, Sigma-Aldrich, USA) and the final concentration of DCF-DA was adjusted to 20 μm in 200 μL to incubate 30 mins. […]
On the technique in general: An ELISA detects its analyte on a solid surface through an enzyme-linked reagent.

For the compound `O=C(CO)O[C@@H]1O[C@@H]2C[C@H]3[C@H](OC(=O)c4ccc(O)c(O)c4)[C@@H](Cl)[C@@](O)(CO2)[C@@H]13` [KS-534, (3R,5S,5aS,6R,7S,8R,8aS)-8-chloro-8a-hydroxy-5-(2-hydroxyacetoxy) hexahydro-1H-3,6-methanocyclopenta[e][1,3]dioxepin-7-yl3,4-dihydroxybenzoate], in test [1] (10 μM), the “Expressed level of MUC5AC mRNA (Relative % comparing with that in TNF-alpha treatment group)” value is 58.47% and 58.47 ± 18.50%. Besides, the “Inhibitory ratio (%) of MUC5AC mRNA expression” value in test [1] (10 μm) is given as 41.52%. Further, in test [2] (15 mg/kg p.o.), the “activity of neutrophils elastase enzyme in BALF comparing with COPD induced group” value is reported as “remarkably reduced”, the “reduced level of ROS in BALF comparing with COPD induced group” value amounted to 19.5%, the “reduced level of neutrophils in BALF comparing with COPD induced group” value came to 26.3% and the “reduced level of proteins in BALF comparing with COPD induced group” value came out at 20.8%. Moreover, in test [2] (15 mg/kg p.o.), the “reduced level of IL-6 in BALF comparing with COPD induced group” value amounted to 35.8% and the “reduced level of TNF-alpha in BALF comparing with COPD induced group” value came out at 18.3%. In test [2] (30 mg/kg p.o.), the “activity of neutrophils elastase enzyme in BALF comparing with COPD induced group” value is “remarkably reduced”, the “reduced level of ROS in BALF comparing with COPD induced group” value is listed as 27.5%, the “reduced level of neutrophils in BALF comparing with COPD induced group” value is given as 25.7% and the “reduced level of proteins in BALF comparing with COPD induced group” value is listed as 28.5%. For the same compound, in test [2] (30 mg/kg p.o.), the “reduced level of IL-6 in BALF comparing with COPD induced group” value is listed as 50.6% and the “reduced level of TNF-alpha in BALF comparing with COPD induced group” value turned out to be 27.6%. The “invasion of the inflamed cells in lung tissue (histology)” value in test [2] (30 mg/kg p.o., COPD mice (FIG. 14)) is reported as “significantly reduced”.
